Results as given in patent US8716478B2, “Boron-containing small molecules” (Anacor Pharmaceuticals, Inc., priority 2010, dated 2014).

Columns and labels:
[1] = tested on: TNF-α; experiment: In vivo TNF-α release in LPS treated mice; set-up: species or system Swiss Webster mice
Description: In vivo TNF-α release was measured in Swiss Webster mice, 10/group. Animals were dosed via oral gavage with drug 1% CMC suspension. Thirty minutes later LPS, 1.5 mg/kg was administered by intraperitoneal injection. Ninety minutes later animals were sacrificed, blood was collected by exsangination and serum prepared for analysis. TNF-α concentration was assessed by ELISA, non-drug treated animals had TNF-α levels 1000-3000 pg/mL. 6-(1-Hydroxy-1,3-dihydrobenzo[c][1,2]oxaborol-5-yloxy)-2-(2-isopropoxyethoxy)nicotinonitrile (D140) and 6-(1-hydroxy-1,3-dihydrobenzo[c][1,2]oxaborol-5-yloxy)-2-(4-oxopentyloxy)nicotinonitrile (D141) are disclosed in U.S. patent application Ser. No. 12/399,015, filed Mar. 5, 2009.

[2] = tested on: Schistosoma mansoni schistosomula; experiment: Schistosoma mansoni schistosomula phenotypic screen; conditions: First Set
Text: Puerto Rican isolates of S. mansoni using Biomphalaria glabrata snails and golden hamsters as intermediate and definitive hosts, respectively, were maintained and handled in the University of California-San Francisco Sandler Center for Tropical Medicine. Patent B. glabrata snails (6-8 weeks after exposure to 5-10 infectious miracidia) were induced to shed infective larvae (cercariae) under light stimulus into the surrounding water. Cercariae were washed in rounds of ice-cold water and concentrated through and over sieves of varying pore sizes. They were then mechanically sheared (separation of heads from tails) as described in Colley D G, et al. Exp Parasitol 1974, 35:44-51, in ice-cold Incomplete Medium 169 (as described in Basch P F. J Parasitol 1981, 67:179-185, minus FBS and antibiotics) by passing 15 times through a double headed 22-gauge syringe needle connected to two 10 mL syringes. The resulting cercarial heads (schistosomula) were separated from their tails by swirling in a petri dish. Concentrated schistosomula were added to a sterile 1.5 mL centrifuge tube and allowed to settle over ice. Schistosomula were transferred to a sterile environment and washed 4 times in Incomplete Medium 169 prior to plating.
Two sets of screening were performed. In the first set, compounds were screened against schistosomula and observations were made at 24 hours, 2 days, 3 days, 4 days, and 6 days. In the second set, compounds were screened against schistosomula with observations at 24 hours, 2 days, 3 days, and 4 days and adult worms at 7 hours, 24 hours, 4 days, and 6 days.
Plates contain 200 schistosomula/well in […] complete Basch medium and were maintained at 37° C. in a 5% CO2 atmosphere. All compounds were tested in duplicate with at least two experimental replicates. Compounds and control compounds were added to the plates using the Biomek FXp using 96-well disposable tips. Final concentration of DMSO in each well was 0.5%.
A semi-quantitative and controlled nomenclature for phenotypes that can arise as a result of compound insult to both schistosomula and adults was utilized (Abdulla M H, et al., PLoS Negl Trop Dis 2009, 3:e478). Phenotypes were recorded by visual inspection and on a flexible time basis but at least at 24 h and 4 day time-points in the case of large scale screening. […] To help eliminate bias, two screen analysts scored phenotypes ‘blind’ both to knowledge of the contents of each screening plate and the phenotypes scored by his/her colleague. Upon completing their individual assessments, each analyst's ‘hit sheet’ was then compared to derive a ‘consensus hit sheet’. Discrepancies in analysts' hit sheets were re-evaluated under the microscope to eventually make a consensus hit call.
Hyper-coiled and coiled represent a verbal description of the visual phenotype as compared to the DMSO control. The + and ++ and +++ means more of the phenotype which preceded it. The − means less of the phenotype which preceded it. Results

[3] = tested on: TNF-α in peripheral blood mononuclear cells (PBMCs); experiment: TNF-α inhibition in LPS-stimulated peripheral blood mononuclear cells; assay type: cell-based; conditions: PBMC; PBMCs, LPS 1 μg/mL for 24 h; read-out: Proinflammatory TNF-α IC50
Description: Peripheral blood mononuclear cells (PBMCs) pooled from 10-20 donors were obtained from a local blood bank, ficoll gradient purified, and stored frozen in liquid nitrogen. Cells were thawed and seeded into 96-well plates at 5×10^5 cells/well in RPMI 1640 with 10% heat-inactivated fetal calf serum (MediaTech, Inc, Hearndon, Va., USA), Test articles were evaluated at the indicated concentrations in 150 μL media containing <2% DMSO, final, with stimulant and PBMCs. Cells were stimulated with lipopolysaccharide (LPS, phenol-extract from E. coli, Sigma-Aldrich, St. Louis, Mo.) at 1 μg/mL. Stimulation was with LPS for 24 h to measure TNF-α. Cytokines in supernatants were analyzed with a FACSArray flow cytometer (BD Biosciences, San Jose, Calif., USA) using the BD Cytometric Bead Array (CBA) Flex Set (BD Biosciences). IC50 values were calculated using the four parameter logistic equation.

SMILES: O=C(Nc1c(Cl)cncc1Cl)c1ccc(OC(F)F)c(OCC2CC2)c1 [Roflumilast]
- % Inhibition of TNFa Blood Levels in LPS Treated Mice ([1]; Oral Dose 0.3 mg/kg): 0%
- % Inhibition of TNFa Blood Levels in LPS Treated Mice ([1]; Oral Dose 1 mg/kg): 24.9%
- % Inhibition of TNFa Blood Levels in LPS Treated Mice ([1]; Oral Dose 3 mg/kg): 52.5%
- % Inhibition of TNFa Blood Levels in LPS Treated Mice ([1]; Oral Dose 10 mg/kg): 71.5%
- % Inhibition of TNFa Blood Levels in LPS Treated Mice ([1]; Oral Dose 30 mg/kg): 73.5%

SMILES: N#Cc1ccc(Oc2ccc3c(c2)COB3O)c(OCC2CC2)c1 [3-(Cyclopropylmethoxy)-4-(1-hydroxy-1,3-dihydrobenzo[c][1,2]oxaborol-5-yloxy)benzonitrile]
- schistosomula phenotype, 24 h [2]: O+
- schistosomula phenotype, day 6 [2]: partial D

SMILES: CN(CCO)c1nc(Oc2ccc3c(c2)COB3O)ccc1C#N [6-(1-Hydroxy-1,3-dihydro-benzo[c][1,2]oxaborol-5-yloxy)-2-[(2-hydroxy-ethyl)-methyl-amino]-nicotinonitrile]
- schistosomula phenotype, 24 h [2]: O−
- schistosomula phenotype, day 3 ([2]; day 3): O−
- schistosomula phenotype, day 6 [2]: R O

SMILES: N#Cc1ccc(Oc2ccc3c(c2)COB3O)nc1NCCO [6-(1-hydroxy-1,3-dihydro-benzo[c][1,2]oxaborol-5-yloxy)-2-(2-hydroxy-ethylamino)-nicotinonitrile]
- schistosomula phenotype, 24 h [2]: O−
- schistosomula phenotype, day 6 [2]: O+ R

SMILES: C[C@]12C=CC(=O)C=C1CC[C@@H]1[C@@H]2[C@@H](O)C[C@@]2(C)[C@H]1CC[C@]2(O)C(=O)CO [Prednisolone]
- % Inhibition of TNFa Blood Levels in LPS Treated Mice ([1]; Oral Dose 0.01 mg/kg): 16%
- % Inhibition of TNFa Blood Levels in LPS Treated Mice ([1]; Oral Dose 0.1 mg/kg): 54.3%
- % Inhibition of TNFa Blood Levels in LPS Treated Mice ([1]; Oral Dose 3 mg/kg): 81.6%
- % Inhibition of TNFa Blood Levels in LPS Treated Mice ([1]; Oral Dose 10 mg/kg): 84.5%
- % Inhibition of TNFa Blood Levels in LPS Treated Mice ([1]; Oral Dose 100 mg/kg): 85.9%

SMILES: CC(C)OCCOc1nc(Oc2ccc3c(c2)C(C)OB3O)c(Cl)cc1C#N (centres unmarked) [Compound D252, 5-Chloro-6-(1-hydroxy-3-methyl-1,3-dihydrobenzo[c][1,2]oxaborol-5-yloxy)-2-(2-isopropoxyethoxy)nicotinonitrile]
- IC50 [3]: 160 nM

SMILES: N#Cc1ccc(Oc2ccc3c(c2)COB3O)nc1OCC(F)(F)F [6-(1-Hydroxy-1,3-dihydro-benzo[c][1,2]oxaborol-5-yloxy)-2-(2,2,2-trifluoro-ethoxy)-nicotinonitrile]
- schistosomula phenotype, 24 h [2]: O (overactive)

SMILES: CCCOC(=O)c1ccc(Oc2ccc3c(c2)COB3O)nc1 [n-Propyl 6-(1-hydroxy-1,3-dihydrobenzo[c][1,2]oxaborol-5-yloxy)nicotinate]
- schistosomula phenotype, 24 h [2]: O+

SMILES: COCCNc1nc(Oc2ccc3c(c2)COB3O)ccc1C#N [6-(1-Hydroxy-1,3-dihydro-benzo[c][1,2]oxaborol-5-yloxy)-2-(2-methoxy-ethylamino)-nicotinonitrile]
- schistosomula phenotype, 24 h [2]: O−

SMILES: CCOC(=O)c1cnc(Oc2ccc3c(c2)COB3O)c(Cl)c1 [Ethyl 5-chloro-6-(1-hydroxy-1,3-dihydrobenzo[c][1,2]oxaborol-5-yloxy)nicotinate]
- schistosomula phenotype, 24 h [2]: O++

SMILES: CC(C)Oc1nc(Oc2ccc3c(c2)COB3O)ccc1C#N [6-(1-Hydroxy-1,3-dihydro-benzo[c][1,2]oxaborol-5-yloxy)-2-isopropoxy-nicotinonitrile]
- schistosomula phenotype, 24 h [2]: O+

SMILES: COCCNc1ccc(C#N)c(Oc2ccc3c(c2)COB3O)n1 [2-(1-Hydroxy-1,3-dihydro-benzo[c][1,2]oxaborol-5-yloxy)-6-(2-methoxy-ethylamino)-nicotinonitrile]
- schistosomula phenotype, 24 h [2]: O+

SMILES: CC(C)OC(=O)c1ccc(Oc2ccc3c(c2)COB3O)nc1 [Isopropyl 6-(1-hydroxy-1,3-dihydrobenzo[c][1,2]oxaborol-5-yloxy)nicotinate]
- schistosomula phenotype, 24 h [2]: O+

SMILES: CC(C)OC(=O)c1ccc(Oc2ccc3c(c2)COB3O)c(F)c1 [5-(2-Fluoro-4-isopropyloxycarbonylphenoxy)-1-hydroxy-2,1-benzoxaborole]
- schistosomula phenotype, day 6 [2]: O−, R

SMILES: CC(=O)OCCOc1nc(Oc2ccc3c(c2)COB3O)ccc1C#N [6-(1-Hydroxy-1,3-dihydro-benzo[c][1,2]oxaborol-5-yloxy)-2-(acetyloxyethoxy)-nicotinonitrile]
- schistosomula phenotype, 24 h [2]: O++

SMILES: N#Cc1cc(Cl)c(Oc2ccc3c(c2)COB3O)nc1OC1CCOCC1 [Compound D240, 5-Chloro-6-(1-hydroxy-1,3-dihydrobenzo[c][1,2]oxaborol-5-yloxy)-2-(tetrahydro-2H-pyran-4-yloxy)nicotinonitrile]
- IC50 [3]: 3.8 nM

SMILES: N#Cc1ccc(Oc2ccc3c(c2)COB3O)nc1OCC(F)F [2-(2,2-Difluoro-ethoxy)-6-(1-hydroxy-1,3-dihydro-benzo[c][1,2]oxaborol-5-yloxy)-nicotinonitrile]
- schistosomula phenotype, 24 h [2]: O+

SMILES: CCOC(=O)c1ccc(Oc2ccc3c(c2)COB3O)c(Oc2cc(C#N)ccn2)c1 [5-[4-Ethoxycarbonyl-2-(4-cyanopyridin-2-yloxy)phenoxy]-1,3-dihydro-1-hydroxy-2,1-benzoxaborole]
- schistosomula phenotype, 24 h [2]: O+

SMILES: COCCN(C)c1nc(Oc2ccc3c(c2)COB3O)ccc1C#N [6-(1-hydroxy-1,3-dihydro-benzo[c][1,2]oxaborol-5-yloxy)-2-[(2-methoxy-ethyl)-methyl-amino]-nicotinonitrile]
- schistosomula phenotype, 24 h [2]: O+

SMILES: CCOC(=O)c1ccc(Oc2ccc3c(c2)COB3O)nc1OCC [Ethyl 2-ethoxy-6-(1-hydroxy-1,3-dihydrobenzo[c][1,2]oxaborol-5-yloxy)nicotinate]
- schistosomula phenotype, 24 h [2]: O+

SMILES: COc1ccc(C2CNC(=O)C2)cc1OC1CCCC1 (centres unmarked) [Rolipram]
- % Inhibition of TNFa Blood Levels in LPS Treated Mice ([1]; Oral Dose 10 mg/kg): 8.6%
- % Inhibition of TNFa Blood Levels in LPS Treated Mice ([1]; Oral Dose 30 mg/kg): 62.7%

SMILES: CC(C)(C)Nc1nc(Oc2ccc3c(c2)COB3O)ccc1C#N [2-tert-butylamino-6-(1-hydroxy-1,3-dihydro-benzo[c][1,2]oxaborol-5-yloxy)-nicotinonitrile]
- schistosomula phenotype, 24 h [2]: O (overactive)

SMILES: CCC(=O)CCCOc1nc(Oc2ccc3c(c2)COB3O)c(Cl)cc1C#N [Compound D234, 5-chloro-6-(1-hydroxy-1,3-dihydrobenzo[c][1,2]oxaborol-5-yloxy)-2-(4-oxohexyloxy)nicotinonitrile]
- IC50 [3]: 2.1 nM

SMILES: N#Cc1ccc(Oc2ccc3c(c2)COB3O)nc1N1CCCC1 [6-(1-Hydroxy-1,3-dihydro-benzo[c][1,2]oxaborol-5-yloxy)-2-pyrrolidin-1-yl-nicotinonitrile]
- schistosomula phenotype, 24 h [2]: O+

SMILES: CCCOc1nc(Oc2ccc3c(c2)COB3O)ccc1C#N [6-(1-Hydroxy-1,3-dihydro-benzo[c][1,2]oxaborol-5-yloxy)-2-propoxy-nicotinonitrile]
- schistosomula phenotype, 24 h [2]: O+

SMILES: CC(=O)NCc1ccc(Oc2ccc3c(c2)COB3O)cc1 [N-[4-(1-Hydroxy-1,3-dihydro-benzo[c][1,2]oxaborol-5-yloxy)-benzyl]-acetamide]
- schistosomula phenotype, day 4 ([2]; day 4): D (dead)

SMILES: N#Cc1cc(Cl)c(Oc2ccc3c(c2)COB3O)nc1OCCCC1(O)CC1 [Compound D233, 5-Chloro-6-(1-hydroxy-1,3-dihydrobenzo[c][1,2]oxaborol-5-yloxy)-2-(3-(1-hydroxycyclopropyl)propoxy)nicotinonitrile]
- IC50 [3]: 13 nM

SMILES: CCOc1nc(Oc2ccc3c(c2)COB3O)ccc1C#N [2-Ethoxy-6-(1-hydroxy-1,3-dihydro-benzo[c][1,2]oxaborol-5-yloxy)-nicotinonitrile]
- schistosomula phenotype, 24 h [2]: O++
